Laboratory results: article PMC7137441, “Synthesis, biological evaluation and molecular docking analysis of vaniline–benzylidenehydrazine hybrids as potent tyrosinase inhibitors” (BMC Chemistry, 2020)
Entries after “also recorded” stand apart in the source; their conditions may differ. Where two headings read alike, the source gives them in different places.

Assays:
[1] = molecular target: T1, mushroom tyrosinase (Agaricus bisporus, UniProt C7FF04); experiment: Mushroom tyrosinase inhibition assay (L-DOPA as substrate); format: biochemical
T1 sequence (C7FF04 1-392): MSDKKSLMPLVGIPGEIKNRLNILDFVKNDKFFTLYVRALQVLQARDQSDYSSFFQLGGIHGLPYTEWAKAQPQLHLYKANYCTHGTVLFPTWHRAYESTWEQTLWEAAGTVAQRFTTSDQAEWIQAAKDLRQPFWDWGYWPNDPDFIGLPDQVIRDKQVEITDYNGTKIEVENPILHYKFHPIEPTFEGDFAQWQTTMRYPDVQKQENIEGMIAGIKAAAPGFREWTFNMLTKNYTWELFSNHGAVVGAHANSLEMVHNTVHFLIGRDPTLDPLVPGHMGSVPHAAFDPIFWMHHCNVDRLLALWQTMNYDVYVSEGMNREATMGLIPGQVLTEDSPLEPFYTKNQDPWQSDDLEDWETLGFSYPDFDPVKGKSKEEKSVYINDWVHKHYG
Method: All test samples were first dissolved in DMSO at 50 mM and diluted to the required concentrations. First, […] of tyrosinase (0.5 mg ml) was mixed with 160 μl of 50 mM phosphate buffer (pH = 6.8) in 96-well microplates and then 10 μl of different concentration of the test sample was added. […] DMSO without test compounds and kojic acid were used as the control and positive control respectively. The tyrosinase activity without inhibitor was defined as 100%. Each concentration was analyzed in three independent experiments run in triplicate.

[2] = molecular target: T1, mushroom tyrosinase; experiment: Kinetic study of tyrosinase inhibition (Lineweaver-Burk plot, L-DOPA as substrate); format: biochemical; conditions: for Vm: L-DOPA 0.25-1 mM
Method: The inhibition constants, Ki, and Vm for tyrosinase inhibitors were determined by fitting the kinetic data to a competitive, noncompetitive, or mixed inhibition model by nonlinear regression analysis using GraphPad Prism.
To determine the inhibition kinetics of vaniline-benzylidenehydrazine a series of experiments were performed. Different concentrations of the 4i (0, 10 and 25 µM) was chosen to get a series of straight lines. Pre-incubation and measurement time were the same as discussed in mushroom tyrosinase inhibition assay protocol. The maximal velocity (Vmax) and the Michaelis constant (Km) of the tyrosinase activity were determined by the Line weaver Burk plot at various concentrations of L-DOPA (0.25, 0.5, 0.75 and 1 mM) as a substrate. The inhibition type of the enzyme was assayed by Line weaver Burk plots of inverse of velocities (1/V) versus inverse of substrate concentrations 1/[S] mM.

[3] = L-DOPA as the substrate, mean ± SEM of three to five independent experiments, read-out: IC50 against tyrosinase enzyme

Row | SMILES | IC50 [1] [µM] | Vm ([2]; 4i at 10 µM) [OD/Min] | Vm ([2]; 4i at 25 µM) [OD/Min] | Type of inhibition ([2]; Lineweaver-Burk plot, 4i at 0, 10 and 25 µM) | IC50 [1, 3] [µM] | melting point [°C]
1 | CCOc1cc(/C=N/NC(=O)c2ccc(O)c(OC)c2)ccc1O [Compound 4i, (E)-Nʹ-(3-ethoxy-4-hydroxybenzylidene)-4-hydroxy-3-methoxybenzohydrazide] | 1.58 | 0.18 | 0.17 | uncompetitive inhibition; also recorded: uncompetitive inhibitor |  | 
2 | COc1cc(C(=O)N/N=C/c2ccc(O)cc2O)ccc1O [Compound 4a, (E)-Nʹ-(2,4-dihydroxybenzylidene)-4-hydroxy-3-methoxybenzohydrazide] |  |  |  |  | 37.1 ± 1.02 | 243
3 | COc1ccc(/C=N/NC(=O)c2ccc(O)c(OC)c2)cc1 [Compound 4c, (E)-4-hydroxy-3-methoxy-Nʹ-(4-methoxybenzylidene)benzohydrazide] |  |  |  |  | 35.6 ± 2.8 | 110
4 | COc1cc(C(=O)N/N=C/c2cc(OC)c(O)c(OC)c2)ccc1O [Compound 4g, (E)-4-hydroxy-Nʹ-(4-hydroxy-3,5-dimethoxybenzylidene)-3-methoxy benzohydrazide] |  |  |  |  | 4.58 | 151
5 | COc1ccc(/C=N/NC(=O)c2ccc(O)c(OC)c2)cc1O [Compound 4h, (E)-4-hydroxy-Nʹ-(3-hydroxy-4-methoxybenzylidene)-3-methoxybenzohydrazide] |  |  |  |  | 10 ± 1.6 | 98
6 | COc1cc(C(=O)N/N=C/c2ccc(OC)c(OC)c2)ccc1O [Compound 4d, (E)-Nʹ-(3,4-dimethoxybenzylidene)-4-hydroxy-3-methoxy benzohydrazide] |  |  |  |  | 20.9 ± 2.09 | 231
7 | COc1cc(C(=O)N/N=C/c2cccc([N+](=O)[O-])c2)ccc1O [Compound 4k, (E)-4-hydroxy-3-methoxy-Nʹ-(3-nitrobenzylidene)benzohydrazide] |  |  |  |  | 5.84 ± 1.9 | 151
8 | COc1cc(C(=O)N/N=C/c2ccc(Br)cc2)ccc1O [Compound 4e, (E)-Nʹ-(4-bromobenzylidene)-4-hydroxy-3-methoxybenzohydrazide] |  |  |  |  | 1.95 ± 2.34 | 115
9 | COc1cc(C(=O)N/N=C/c2ccccc2[N+](=O)[O-])ccc1O [Compound 4j, (E)-4-hydroxy-3-methoxy-Nʹ-(2-nitrobenzylidene)benzohydrazide] |  |  |  |  | 17 ± 2.03 | 151
10 | COc1cc(C(=O)N/N=C/c2ccc([N+](=O)[O-])cc2)ccc1O [Compound 4f, (E)-4-hydroxy-3-methoxy-Nʹ-(4-nitrobenzylidene)benzohydrazide] |  |  |  |  | 29.1 ± 0.89 | 195
11 | COc1cc(C(=O)N/N=C/c2ccc(O)cc2)ccc1O [Compound 4b, (E)-4-hydroxy-Nʹ-(4-hydroxybenzylidene)-3-methoxybenzohydrazide] |  |  |  |  | 15.2 ± 1.34 | 256
